US11178871B2, “Herbicidal pyrimidine compounds” (BASF SE, priority 2016, dated 2021)

What was measured:
Assay type in all cases: in vivo
Echinocloa crus-galli [1] = assay: greenhouse test, pre-emergence treatment, ECHCG
Source text: (§1) The culture containers used were plastic flowerpots containing loamy sand with approximately 3.0% of humus as the substrate. The seeds of the test plants were sown separately for each species.
(§2) For the pre-emergence treatment, the active ingredients, which had been suspended or emulsified in water, were applied directly after sowing by means of finely distributing nozzles. The containers were irrigated gently to promote germination and growth and subsequently covered with transparent plastic hoods until the plants had rooted. This cover caused uniform germination of the test plants, unless this had been impaired by the active ingredients.
(§3) Depending on the species, the plants were kept at 10-25° C. or 20-35° C., respectively.
(§4) The test period extended over 2 to 4 weeks. During this time, the plants were tended, and their response to the individual treatments was evaluated.
(§5) Evaluation was carried out using a scale from 0 to 100. 100 means no emergence of the plants, or complete destruction of at least the aerial moieties, and 0 means no damage, or normal course of growth. A good herbicidal activity is given at values of at least 70 and a very good herbicidal activity is given at values of at least 85.
(§6) The plants used in the greenhouse experiments were of the following species: […]

Echinocloa crus-galli [2] = assay: greenhouse test, post-emergence treatment, ECHCG; settings: post-emergence
Source text: as §1
(§7) For the post-emergence treatment, the test plants were first grown to a height of 3 to 15 cm, depending on the plant habit, and only then treated with the active ingredients which had been suspended or emulsified in water. For this purpose, the test plants were either sown directly and grown in the same containers, or they were first grown separately as seedlings and transplanted into the test containers a few days prior to treatment.
as §3, §4, §5, §6

Apera spica-venti = assay: greenhouse test, pre-emergence treatment, APESV
Source text: as §1, §2, §3, §4, §5, §6

Alopecurus myosuroides = assay: greenhouse test, post-emergence treatment, ALOMY; settings: post-emergence
Source text: as §1, §7, §3, §4, §5, §6

Avena fatua = assay: greenhouse test, post-emergence treatment, AVEFA
Source text: as §1, §7, §3, §4, §5, §6

## OC(Cc1nc(C2CC2)ncc1-c1ccccc1Cl)c1ccco1 (centres unmarked) [Ex. 106]
Echinocloa crus-galli [1]; 2000 g/ha
  herbicidal activity: very good (a very good herbicidal activity is given at values of at least 85)
Echinocloa crus-galli [2]; 2000 g/ha
  herbicidal activity: very good (a very good herbicidal activity is given at values of at least 85)
Apera spica-venti; 2000 g/ha
  herbicidal activity: very good (a very good herbicidal activity is given at values of at least 85)
Alopecurus myosuroides; 2000 g/ha
  herbicidal activity: very good (a very good herbicidal activity is given at values of at least 85)
Avena fatua; 2000 g/ha
  herbicidal activity: very good (a very good herbicidal activity is given at values of at least 85)

## CCc1nc(C)c(-c2nc(C3CC3)ncc2-c2ccccc2Br)o1 [Ex. 290]
Echinocloa crus-galli [1]; 2000 g/ha
  herbicidal activity: very good (a very good herbicidal activity is given at values of at least 85)
Echinocloa crus-galli [2]; 2000 g/ha
  herbicidal activity: very good (a very good herbicidal activity is given at values of at least 85)
Apera spica-venti; 2000 g/ha
  herbicidal activity: very good (a very good herbicidal activity is given at values of at least 85)
Alopecurus myosuroides; 2000 g/ha
  herbicidal activity: very good (a very good herbicidal activity is given at values of at least 85)
Avena fatua; 2000 g/ha
  herbicidal activity: very good (a very good herbicidal activity is given at values of at least 85)

## COC(=O)C(C)c1nc(C2CC2)ncc1-c1cc(F)ccc1Cl (centres unmarked) [Ex. 159]
Echinocloa crus-galli [1]; 2000 g/ha
  herbicidal activity: good (A good herbicidal activity is given at values of at least 70)
Apera spica-venti; 2000 g/ha
  herbicidal activity: good (A good herbicidal activity is given at values of at least 70)
Alopecurus myosuroides; 2000 g/ha
  herbicidal activity: very good (a very good herbicidal activity is given at values of at least 85)
Avena fatua; 2000 g/ha
  herbicidal activity: very good (a very good herbicidal activity is given at values of at least 85)

## Cc1ncoc1-c1nc(C2CC2)ncc1-c1cc(F)ccc1Cl [Ex. 236]
Echinocloa crus-galli [1]; 2000 g/ha
  herbicidal activity: very good (a very good herbicidal activity is given at values of at least 85)
Echinocloa crus-galli [2]; 2000 g/ha
  herbicidal activity: very good (a very good herbicidal activity is given at values of at least 85)
Apera spica-venti; 2000 g/ha
  herbicidal activity: very good (a very good herbicidal activity is given at values of at least 85)
Alopecurus myosuroides; 2000 g/ha
  herbicidal activity: very good (a very good herbicidal activity is given at values of at least 85)
Avena fatua; 2000 g/ha
  herbicidal activity: very good (a very good herbicidal activity is given at values of at least 85)

## OC(c1nc(C2CC2)ncc1-c1ccccc1Cl)C1(O)CCC1 (centres unmarked) [Ex. 154]
Echinocloa crus-galli [1]; 2000 g/ha
  herbicidal activity: very good (a very good herbicidal activity is given at values of at least 85)
Echinocloa crus-galli [2]; 2000 g/ha
  herbicidal activity: very good (a very good herbicidal activity is given at values of at least 85)
Apera spica-venti; 2000 g/ha
  herbicidal activity: very good (a very good herbicidal activity is given at values of at least 85)
Alopecurus myosuroides; 2000 g/ha
  herbicidal activity: very good (a very good herbicidal activity is given at values of at least 85)
Avena fatua; 2000 g/ha
  herbicidal activity: very good (a very good herbicidal activity is given at values of at least 85)

## Clc1ccccc1-c1cnc(C2CC2)nc1-c1cncs1 [Ex. 245]
Echinocloa crus-galli [1]; 1000 g/ha
  herbicidal activity: good (A good herbicidal activity is given at values of at least 70)
Echinocloa crus-galli [2]; 1000 g/ha
  herbicidal activity: very good (a very good herbicidal activity is given at values of at least 85)
Apera spica-venti; 1000 g/ha
  herbicidal activity: very good (a very good herbicidal activity is given at values of at least 85)
Alopecurus myosuroides; 1000 g/ha
  herbicidal activity: very good (a very good herbicidal activity is given at values of at least 85)
Avena fatua; 1000 g/ha
  herbicidal activity: very good (a very good herbicidal activity is given at values of at least 85)

## Fc1ccc(-c2cnc(C3CC3)nc2-c2ccco2)c(Cl)c1 [Ex. 54]
Echinocloa crus-galli [2]; 1000 g/ha
  herbicidal activity: very good (a very good herbicidal activity is given at values of at least 85)
Apera spica-venti; 1000 g/ha
  herbicidal activity: very good (a very good herbicidal activity is given at values of at least 85)
Avena fatua; 1000 g/ha
  herbicidal activity: very good (a very good herbicidal activity is given at values of at least 85)

## C/C=C/c1nc(C2CC2)ncc1-c1ccccc1Cl [Ex. 93]
Echinocloa crus-galli [1]; 2000 g/ha
  herbicidal activity: very good (a very good herbicidal activity is given at values of at least 85)
Echinocloa crus-galli [2]; 2000 g/ha
  herbicidal activity: very good (a very good herbicidal activity is given at values of at least 85)
Apera spica-venti; 2000 g/ha
  herbicidal activity: very good (a very good herbicidal activity is given at values of at least 85)
Alopecurus myosuroides; 2000 g/ha
  herbicidal activity: very good (a very good herbicidal activity is given at values of at least 85)
Avena fatua; 2000 g/ha
  herbicidal activity: very good (a very good herbicidal activity is given at values of at least 85)

## Brc1ccccc1-c1cnc(C2CC2)nc1-c1cocn1 [Ex. 287]
Echinocloa crus-galli [1]; 1000 g/ha
  herbicidal activity: very good (a very good herbicidal activity is given at values of at least 85)
Echinocloa crus-galli [2]; 1000 g/ha
  herbicidal activity: very good (a very good herbicidal activity is given at values of at least 85)
Apera spica-venti; 1000 g/ha
  herbicidal activity: very good (a very good herbicidal activity is given at values of at least 85)
Alopecurus myosuroides; 1000 g/ha
  herbicidal activity: very good (a very good herbicidal activity is given at values of at least 85)
Avena fatua; 1000 g/ha
  herbicidal activity: very good (a very good herbicidal activity is given at values of at least 85)

## Clc1ccccc1-c1cnc(C2CC2)nc1C=C1CCC1 [Ex. 71]
Echinocloa crus-galli [1]; 2000 g/ha
  herbicidal activity: very good (a very good herbicidal activity is given at values of at least 85)
Echinocloa crus-galli [2]; 2000 g/ha
  herbicidal activity: good (A good herbicidal activity is given at values of at least 70)
Apera spica-venti; 2000 g/ha
  herbicidal activity: very good (a very good herbicidal activity is given at values of at least 85)
Alopecurus myosuroides; 2000 g/ha
  herbicidal activity: very good (a very good herbicidal activity is given at values of at least 85)
Avena fatua; 2000 g/ha
  herbicidal activity: very good (a very good herbicidal activity is given at values of at least 85)

## COC(=O)Cc1nc(C2CC2)ncc1-c1ccccc1Br [Ex. 67]
Echinocloa crus-galli [2]; 2000 g/ha
  herbicidal activity: good (A good herbicidal activity is given at values of at least 70)
Apera spica-venti; 2000 g/ha
  herbicidal activity: very good (a very good herbicidal activity is given at values of at least 85)
Alopecurus myosuroides; 2000 g/ha
  herbicidal activity: very good (a very good herbicidal activity is given at values of at least 85)
Avena fatua; 2000 g/ha
  herbicidal activity: very good (a very good herbicidal activity is given at values of at least 85)

## OC(c1ccccc1)C(O)c1nc(C2CC2)ncc1-c1ccccc1Cl (centres unmarked) [Ex. 153]
Echinocloa crus-galli [1]; 2000 g/ha
  herbicidal activity: very good (a very good herbicidal activity is given at values of at least 85)
Echinocloa crus-galli [2]; 2000 g/ha
  herbicidal activity: very good (a very good herbicidal activity is given at values of at least 85)
Apera spica-venti; 2000 g/ha
  herbicidal activity: very good (a very good herbicidal activity is given at values of at least 85)
Alopecurus myosuroides; 2000 g/ha
  herbicidal activity: very good (a very good herbicidal activity is given at values of at least 85)
Avena fatua; 2000 g/ha
  herbicidal activity: very good (a very good herbicidal activity is given at values of at least 85)

## COc1cnc(O)nc1-c1nc(C2CC2)ncc1-c1ccccc1Cl [Ex. 250]
Echinocloa crus-galli [1]; 2000 g/ha
  herbicidal activity: very good (a very good herbicidal activity is given at values of at least 85)
Echinocloa crus-galli [2]; 2000 g/ha
  herbicidal activity: very good (a very good herbicidal activity is given at values of at least 85)
Apera spica-venti; 2000 g/ha
  herbicidal activity: very good (a very good herbicidal activity is given at values of at least 85)
Alopecurus myosuroides; 2000 g/ha
  herbicidal activity: very good (a very good herbicidal activity is given at values of at least 85)
Avena fatua; 2000 g/ha
  herbicidal activity: very good (a very good herbicidal activity is given at values of at least 85)

## Brc1ccccc1-c1cnc(C2CC2)nc1C=C1CCC1 [Ex. 157]
Echinocloa crus-galli [1]; 2000 g/ha
  herbicidal activity: very good (a very good herbicidal activity is given at values of at least 85)
Echinocloa crus-galli [2]; 2000 g/ha
  herbicidal activity: very good (a very good herbicidal activity is given at values of at least 85)
Apera spica-venti; 2000 g/ha
  herbicidal activity: very good (a very good herbicidal activity is given at values of at least 85)
Alopecurus myosuroides; 2000 g/ha
  herbicidal activity: very good (a very good herbicidal activity is given at values of at least 85)
Avena fatua; 2000 g/ha
  herbicidal activity: very good (a very good herbicidal activity is given at values of at least 85)

## Cc1nc(C)c(-c2nc(C3CC3)ncc2-c2cc(F)ccc2Cl)o1 [Ex. 284]
Echinocloa crus-galli [1]; 2000 g/ha
  herbicidal activity: very good (a very good herbicidal activity is given at values of at least 85)
Echinocloa crus-galli [2]; 2000 g/ha
  herbicidal activity: very good (a very good herbicidal activity is given at values of at least 85)
Apera spica-venti; 2000 g/ha
  herbicidal activity: very good (a very good herbicidal activity is given at values of at least 85)
Alopecurus myosuroides; 2000 g/ha
  herbicidal activity: very good (a very good herbicidal activity is given at values of at least 85)
Avena fatua; 2000 g/ha
  herbicidal activity: very good (a very good herbicidal activity is given at values of at least 85)

## Clc1ccccc1-c1cnc(C2CC2)nc1C=C1CCCC1 [Ex. 128]
Echinocloa crus-galli [2]; 2000 g/ha
  herbicidal activity: very good (a very good herbicidal activity is given at values of at least 85)
Apera spica-venti; 2000 g/ha
  herbicidal activity: very good (a very good herbicidal activity is given at values of at least 85)
Alopecurus myosuroides; 2000 g/ha
  herbicidal activity: good (A good herbicidal activity is given at values of at least 70)
Avena fatua; 2000 g/ha
  herbicidal activity: very good (a very good herbicidal activity is given at values of at least 85)

## Brc1ccccc1-c1cnc(C2CC2)nc1-c1ccoc1 [Ex. 40]
Echinocloa crus-galli [1]; 2000 g/ha
  herbicidal activity: very good (a very good herbicidal activity is given at values of at least 85)
Apera spica-venti; 2000 g/ha
  herbicidal activity: very good (a very good herbicidal activity is given at values of at least 85)
Alopecurus myosuroides; 2000 g/ha
  herbicidal activity: very good (a very good herbicidal activity is given at values of at least 85)
Avena fatua; 2000 g/ha
  herbicidal activity: very good (a very good herbicidal activity is given at values of at least 85)

## COCc1nc(C2CC2)ncc1-c1ccccc1Cl [Ex. 22]
Echinocloa crus-galli [2]; 1000 g/ha
  herbicidal activity: very good (a very good herbicidal activity is given at values of at least 85)
Apera spica-venti; 1000 g/ha
  herbicidal activity: very good (a very good herbicidal activity is given at values of at least 85)
Alopecurus myosuroides; 1000 g/ha
  herbicidal activity: very good (a very good herbicidal activity is given at values of at least 85)
Avena fatua; 1000 g/ha
  herbicidal activity: very good (a very good herbicidal activity is given at values of at least 85)
